In patent US20120245229A1, “METHOD FOR TREATING NEUROPATHIC PAIN” (priority 2009, published 2012):

Columns and labels:
[1] = test system: complete Freund's adjuvant (CFA)-evoked heat hyperalgesia; experiment: CFA-evoked heat hyperalgesia (paw withdrawal latency, Hargreaves); format: in vivo, mice; conditions: for reduction of heat hyperalgesia: 10 ng i.t., post-CFA day 3, 1 h after injection
Method: (§1) Animals and pain models. Adult CD1 mice (male, 25-32 g) were used for most experiments. Knockout mice were used lacking TNFR1/II (Tnfrsf1a/1b^−/−) and TRPV1 (Trpv1^−/−) and C57BL/6 wild-type control mice, all from Jackson, for some experiments. All animal procedures performed in this study were approved by the Harvard Medical Area Standing Committee on Animals. 20 μl of diluted formalin (5%), carrageenan (CRG, 1%), or complete Freund's adjuvant (CFA) were injected into the plantar surface of a hindpaw to produce acute, persistent, or chronic inflammatory pain, respectively. Postoperative pain was also produced through hindpaw incision^36 and neuropathic pain by ligation of the spinal nerve^37.
Reagents and administration. RvE1 and RvD1 were suspended in 1% or 10% ethanol as vehicle for investigating acute (<1 h) and persistent (1-6 h) effects of resolvins on inflammatory pain. The reagents (10 μl) were delivered to the cerebral spinal fluid via intrathecal injection made by a spinal cord puncture between the L5 and L6 level with a 30G needle^38.
(§2) Behavioral analysis. Mice were habituated in the testing environment for two days and performed behavioral testing in a blinded manner. Formalin-evoked spontaneous inflammatory pain was assessed by measuring duration (seconds) animals spent on licking/flinching the affected paws every 5 min for 45 min. Capsaicin-induced spontaneous pain was aslo assessed for 10 min. For testing mechanical sensitivity, mice were put in boxes on an elevated metal mesh floor and stimulated hindpaw with a series of von Frey hairs with logarithmically incrementing stiffness (0.02-2.56 grams, Stoelting), presented perpendicular to the plantar surface. It was determined the 50% paw withdrawal threshold using Dixon's up-down method^40. For testing heat sensitivity, mice were placed in plastic boxes and tested heat sensitivity using Hargreaves radiant heat apparatus (IITC Life Science Inc.). The basal paw withdrawal latency was adjusted to 9-12 seconds and set a cut-off of 20 seconds to prevent tissue damage. The percent maximal possible antinociceptive effect (% M.P.E) was calculated using the equation % M.P.E.=[(PL−BL2)/(BL1−BL2)]×100. BL1, baseline latency before inflammation; BL2, baseline latency after inflammation but before drug injection; PL, latency post drug injection.
Intrathecal injection. To avoid systemic effects of drugs and target spinal mechanisms, drugs were delivered into cerebral spinal fluid (CSF) space around lumbosacral spinal cord via intrathecal (i.t.) administration. Spinal cord puncture was made with a 30G needle between the L5 and L6 level to deliver the reagents (10 μl) to the cerebral spinal fluid (Hylden and Wilcox, 1980)^5. […] In addition to spinal cord cells, intrathecal drug administration also affects DRG cells^6,7.
The anti-hyperalgesic efficacy of RvE1 prepared in 1% and 10% ethanol was compared on post-CFA day 3.

ERK phosphorylation = ERK phosphorylation (pERK) in superficial dorsal horn neurons of spinal slices; format: cell-based, mice; conditions: TNF-α 10 ng/ml, 5 min
Method: (§3) Spinal cord slice preparation. As previously reported^39, a portion of the lumbar spinal cord (L4-L5) was removed from young mice (3-4 week old) under urethane anesthesia (1.5-2.0 g/kg, i.p.) and transverse spinal cord slices were cut (600 μm) on a vibrating microslicer. The slices were perfused with Kreb's solution (8 ml/min) for >2 h prior to experiments. Some slices were stimulated with TNF-α (10 ng/ml, 5 min), the slices were fixed with 4% paraformaldehyde for 1 h, and processed pERK immunohistochemistry using thin sections (15 μm)^13.
Resolvins were also used for intraplantar injection. RvD1 or RvE1 was injected into the plantar surface of a hindapaw [20 ng, 20 μl , in 1% ethanol (Supplementary FIG. 5a, 5b) or in 10% ethanol (FIG. 2e, Supplementary FIG. 1d)]. […]
PERK immunohistochemistry in the spinal cord: Transverse spinal cord slices (600 μm) were cut on a vibrating microslicer. […] The stained sections were examined with a Nikon fluorescence microscope, and images were captured with a CCD Spot camera. The number of pERK-immunoreactive cells in the superficial dorsal horn (laminae I-III) was quantified in 5 spinal cord sections from each slice and averaged for that slice, and 4-5 slices from separate animals were included for data analysis^12.

CRG-induced edema = experiment: Carrageenan paw edema (paw volume, plethysmometer); format: in vivo, mice; conditions: intraplantar pretreatment; 4 h after CRG injection
Method: Measurement of paw volume. Paw swelling (edema) after carrageenan injection was determined by water displacement plethysmometer (Ugo Basile, Italy). The Plethysmometer is a microcontrolled volume meter, specially designed for accurate measurement of the rat/mouse paw swelling. It consists of a water filled Perspex cell into which the paw is dipped. A transducer of original design records small differences in water level, caused by volume displacement.

[2] = test system: SNL-induced neuropathic pain; experiment: Neuropathic pain model induced by spinal nerve ligation (SNL); format: in vivo, mice
Method: as §1, §2

lamina II neurons = experiment: Patch clamp recording of sEPSCs in lamina II neurons of spinal cord slices; format: cell-based, mice
Method: as §3
Patch clamp recordings in spinal slices. Whole cell patch-clamp recordings were performed in lamina II neurons in voltage clamp mode^39. After establishing the whole-cell configuration, neurons were held at the holding potentials of −70 mV for recording spontaneous excitatory postsynaptic current (sEPSC). NMDA-induced currents were recorded by bath application of NMDA (50 μM, Sigma) at the holding potential of −50 mV. Membrane currents were amplified with an Axopatch 200A amplifier (Axon Instruments) in voltage-clamp mode. pCLAMP 6 was used and Mini Analysis (Synaptosoft Inc.) software to store and analyze the data. Those cells showing >5% changes from the baseline levels were reagrded as responding ones^24.
Resolvins were also used for intraplantar injection. RvD1 or RvE1 was injected into the plantar surface of a hindapaw [20 ng, 20 μl , in 1% ethanol (Supplementary FIG. 5a, 5b) or in 10% ethanol (FIG. 2e, Supplementary FIG. 1d)]. DRG cultures were incubated with RvE1 (10 ng/ml, 0.1% ethanol in culture medium) and perfused spinal cord slices with RvE1 (1 ng/ml, in 0.01% ethanol and Kreb's solution).
Perfusion of spinal cord slices: Spinal cord slices were incubated with chemerin (100 ng/ml, in Kreb's solution), TNF-α (10 ng/ml, in Kreb's solution), capsaicin (100 nM, in 0.01% DMSO and Kreb's solution), TRPV1 antagonist capsazepine (Sigma, 10 μM, in 0.01% DMSO and Kreb's solution), pertussix toxin (0.5 μg/ml, in Kreb's solution), and MEK inhibitor PD98059 and U0126 (CalBiochem, 1 μM, in 0.01% DMSO and Kreb's solution). For pertussix toxin treatment, spinal cord slices were incubated with the toxin for 3 h before stimulation.

CC[C@@H](O)/C=C/C=C\C[C@@H](O)/C=C/C=C/C=C\[C@@H](O)CCCC(=O)O [RvE1, 5S,12R,18R-trihydroxyeicosapentaenoic acid]
reduction of heat hyperalgesia ([1]; vehicle 1% ethanol): 54.7% | reduction of heat hyperalgesia ([1]; vehicle 10% ethanol): 55.7% | reduction in hyperalgesia ([1]; 10 ng intrathecal, post-CFA day 3, 15 min after administration): ~75% | potency of 10 ng RvE1 compared with 10 μg NS-398 ([1]; intrathecal, CFA heat hyperalgesia, 1-6 h): more potent than 10 μg COX-2 inhibitor NS-398 | TNF-α-induced ERK phosphorylation in superficial dorsal horn neurons (ERK phosphorylation): reduced the phosphorylation | CRG-induced edema (paw volume) (CRG-induced edema): reducing | SNL-induced heat hyperalgesia ([2]; 10 ng, i.t., one day after spinal nerve ligation): reduces SNL-induced heat hyperalgesia | nerve injury-induced hyperalgesia ([2]; neuropathic pain model induced by spinal nerve ligation): potently attenuate | capsaicin-induced increases in sEPSC frequency after pretreatment with pertussis toxin (lamina II neurons; PTX 0.5 μg/ml for 3 h before capsaicin stimulation): fails to inhibit | basal synaptic transmission (sEPSC) (lamina II neurons; RvE1 alone, 1 ng/ml perfusion): did not alter basal synaptic transmission | TNF-α-evoked sEPSC frequency increase (lamina II neurons; TNF-α 10 ng/ml, RvE1 1 ng/ml, capsazepine 10 μM): blocked | capsaicin-evoked sEPSC frequency increase (lamina II neurons; capsaicin 100 nM, RvE1 1 ng/ml, chemerin 100 ng/ml, PD98059 and U0126 1 μM): completely blocked
